Test results: patent publication US20240158348A1, “HERBICIDAL CYCLIC AMIDES N-SUBSTITUTED WITH A HALOALKYLSULFONYLANILIDE GROUP” (FMC Corporation, priority 2021, published 2024)

Legend:
Type in all cases: in vivo
[1] = system: ragweed (common ragweed, Ambrosia artemisiifolia); experiment: Test A preemergence, ragweed; settings: pre-emergence, 240 h, 0 to 100 scale, 10 days, read-out: Plant response rating, Ragweed; for pest or weed control at 31 g/ha: 31 g ai/ha; for pest or weed control at 125 g/ha: 125 g ai/ha
From the text: (§1) Seeds of plant species selected from barnyardgrass (Echinochloa crus-galli), blackgrass (Alopecurus myosuroides), corn (Zea mays), foxtail, giant (giant foxtail, Setaria faberi), goosegrass (Eleusine indica), kochia (Bassia scoparia), oat, wild (wild oat, Avena fatua), pigweed, palmer (palmer amaranth, Amaranthus palmeri), pigweed, redroot (redroot pigweed, Amaranthus retroflexus), ragweed (common ragweed, Ambrosia artemisiifolia), ryegrass, Italian (Italian ryegrass, Lolium multiflorum), soybean (Glycine max), and wheat (Triticum aestivum) were planted into a blend of loam soil and sand and treated preemergence with a directed soil spray using test chemicals formulated in a non-phytotoxic solvent mixture which included a surfactant.
(§2) At the same time, plants selected from these crop and weed species and also galium (catchweed bedstraw, Galium aparine) and horseweed (Erigeron canadensis) were planted in pots containing the same blend of loam soil and sand and treated with postemergence applications of test chemicals formulated in the same manner. Plants ranged in height from 2 to 10 cm and were in the one- to two-leaf stage for the postemergence treatment. Treated plants and untreated controls were maintained in a greenhouse for 10 days, after which time all treated plants were compared to untreated controls and visually evaluated for injury. Plant response ratings, summarized in Table A, are based on a 0 to 100 scale where 0 is no effect and 100 is complete control. A dash (-) response means no test result.

[2] = system: foxtail, giant (giant foxtail, Setaria faberi); experiment: Test A preemergence, giant foxtail; settings: pre-emergence, 240 h, 0 to 100 scale, 10 days, read-out: Plant response rating, Foxtail, Giant; for pest or weed control at 31 g/ha: 31 g ai/ha; for pest or weed control at 125 g/ha: 125 g ai/ha
From the text: as §1, §2

[3] = system: goosegrass (Eleusine indica); experiment: Test A postemergence, goosegrass; settings: 0 to 100 scale, 10 days
From the text: as §1, §2

[4] = system: soybean (Glycine max); experiment: Test A postemergence, soybean; settings: 0 to 100 scale, 10 days
From the text: as §1, §2

[5] = system: soybean (Glycine max); experiment: Test A preemergence, soybean; settings: 0 to 100 scale, 10 days
From the text: as §1, §2

[6] = system: blackgrass (Alopecurus myosuroides); experiment: Test A preemergence, blackgrass; settings: 0 to 100 scale, 10 days
From the text: as §1, §2

[7] = system: pigweed, palmer (palmer amaranth, Amaranthus palmeri); experiment: Test A preemergence, palmer amaranth; settings: 0 to 100 scale, 10 days
From the text: as §1, §2

[8] = system: foxtail, giant (giant foxtail, Setaria faberi); experiment: Test C postemergence, giant foxtail
[9] = system: blackgrass (Alopecurus myosuroides); experiment: Test C postemergence, blackgrass; settings: 125 g ai/ha Postemergence; 0 is no effect, 100 is complete control
[10] = system: goosegrass (Eleusine indica); experiment: Test C preemergence, goosegrass; settings: 0 is no effect, 100 is complete control
Outline: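 Injury is given as a visual 0–100 rating, where 100 is complete control, made against untreated plants after 10 or 12 greenhouse days. Galium received a postemergence spray at the one- to two-leaf stage (2–10 cm tall). Corn, ragweed and goosegrass seeds in loam-sand blend received a directed preemergence soil spray; test chemicals were formulated in a surfactant-containing non-phytotoxic solvent.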

| Structure (SMILES) | pest or weed control at 31 g/ha [1] [%] | pest or weed control at 125 g/ha [1] [%] | pest or weed control at 31 g/ha [2] [%] | pest or weed control at 125 g/ha [2] [%] | Plant response rating, Goosegrass ([3]; 31 g ai/ha) | Plant response rating, Goosegrass ([3]; 125 g ai/ha) | Plant response rating, Soybean ([4]; 31 g ai/ha) | Plant response rating, Soybean ([4]; 125 g ai/ha) | Plant response rating, Soybean ([5]; 31 g ai/ha) | Plant response rating, Soybean ([5]; 125 g ai/ha) | Plant response rating, Blackgrass ([6]; 31 g ai/ha) | Plant response rating, Blackgrass ([6]; 125 g ai/ha) | Plant response rating, Pigweed, Palmer ([7]; 31 g ai/ha) | Plant response rating, Pigweed, Palmer ([7]; 125 g ai/ha) | Foxtail, Giant plant response rating ([8]; 31 g ai/ha Postemergence, visual injury, 0 to 100 scale (0 no effect, 100 complete control)) | Plant response rating (0 to 100 scale), Foxtail, Giant ([8]; 125 g ai/ha Postemergence, 0 is no effect, 100 is complete control) | Plant response rating (0 to 100 scale), Blackgrass [9] | Plant response rating (0 to 100 scale), Goosegrass ([10]; 31 g ai/ha Preemergence) | Plant response rating (0 to 100 scale), Goosegrass ([10]; 125 g ai/ha Preemergence) |
| --- | --- | --- | --- | --- | --- | --- | --- | --- | --- | --- | --- | --- | --- | --- | --- | --- | --- | --- | --- |
| C#CCOC1CCN(c2cc(NS(=O)(=O)C(F)(F)F)c(C)cc2C)C1=O (stereo not shown) [Compound 1, N-[2,4-dimethyl-5-[2-oxo-3-(2-propyn-1-yloxy)-1-pyrrolidinyl]phenyl]-1,1,1-trifluoromethanesulfonamide] | 30 | 90 | 90 | 100 |  |  |  |  |  |  |  |  |  |  |  |  |  |  |  |
| C=CCOC1CCN(c2cc(NS(=O)(=O)C(F)(F)F)c(C)cc2C)C1=O (stereo not shown) [Compound 2, N-[2,4-dimethyl-5-[2-oxo-3-(2-propen-1-yloxy)-1-pyrrolidinyl]phenyl]-1,1,1-trifluoromethanesulfonamide] | 20 | 80 | 100 | 100 |  |  |  |  |  |  |  |  |  |  |  |  |  |  |  |
| Cc1cc(C)c(N2CCC(OC3CC3)C2=O)cc1NS(=O)(=O)C(F)(F)F (stereo not shown) [Compound 3, N-[5-[3-(cyclopropyloxy)-2-oxo-1-pyrrolidinyl]-2,4-dimethylphenyl]-1,1,1-trifluoromethanesulfonamide] | 90 | 100 | 100 | 100 | 80 | 90 | 60 | 70 | 30 | 80 | 80 | 100 | 100 | 100 |  |  |  |  |  |
| Cc1cc(C)c(N2CCC(OC3CCC3)C2=O)cc1NS(=O)(=O)C(F)(F)F (stereo not shown) [Compound 4, N-[5-[3-(cyclobutyloxy)-2-oxo-1-pyrrolidinyl]-2,4-dimethylphenyl]-1,1,1-trifluoromethanesulfonamide] | 90 | 100 | 100 | 100 | 70 | 90 | 50 | 70 | 70 | 100 | 20 | 90 | 100 | 100 |  |  |  |  |  |
| Cc1cc(C)c(N(COC(=O)C(C)(C)C)S(=O)(=O)C(F)(F)F)cc1N1CCC(OC2CCCC2)C1=O (stereo not shown) [Compound 5, [[5-[3-(cyclopentyloxy)-2-oxo-1-pyrrolidinyl]-2,4-dimethylphenyl][(trifluoromethyl)sulfonyl]amino]methyl 2,2-dimethylpropanoate] | 0 | 40 | 0 | 50 | 50 | 90 | 60 | 70 | 0 | 20 | 0 | 40 | 10 | 50 |  |  |  |  |  |
| Cc1cc(C)c(N2CCC(OC3CCCC3)C2=O)cc1NS(=O)(=O)C(F)(F)F (stereo not shown) [Compound 6, N-[5-[3-(cyclopentyloxy)-2-oxo-1-pyrrolidinyl]-2,4-dimethylphenyl]-1,1,1-trifluoromethanesulfonamide] | 30 | 90 | 100 | 100 | 80 | 90 | 70 | 70 | 50 | 90 | 50 | 90 | 70 | 100 |  |  |  |  |  |
| Cc1cc(C)c(N(COC(=O)C(C)(C)C)S(=O)(=O)C(F)(F)F)cc1N1CCC(OC2CC2)C1=O (stereo not shown) [Compound 7, [[5-[3-(cyclopropyloxy)-2-oxo-1-pyrrolidinyl]-2,4-dimethylphenyl][(trifluoromethyl)sulfonyl]amino]methyl 2,2-dimethylpropanoate] | 30 | 90 | 90 | 90 | 90 | 90 | 90 | 90 | 20 | 40 | 30 | 80 | 50 | 100 |  |  |  |  |  |
| Cc1cc(C)c(N(COC(=O)C(C)(C)C)S(=O)(=O)C(F)(F)F)cc1N1CCC(OC2CCC2)C1=O (stereo not shown) [Compound 8, [[5-[3-(cyclobutyloxy)-2-oxo-1-pyrrolidinyl]-2,4-dimethylphenyl][(trifluoromethyl)sulfonyl]amino]methyl 2,2-dimethylpropanoate] | 20 | 90 | 90 | 100 | 80 | 90 | 60 | 90 | 40 | 50 | 30 | 70 | 30 | 90 |  |  |  |  |  |
| COC(=O)N(c1cc(N2CCC(OC3CC3)C2=O)c(C)cc1Cl)S(=O)(=O)C(F)(F)F (stereo not shown) [Compound 40] |  |  |  |  |  |  |  |  |  |  |  |  |  |  | 50 | 90 | 60 | 100 | 100 |
